Laboratory results published in US5248604A, “Enzymatically active recombinant human acetylcholinesterase and hosts and vectors for expression thereof” (priority 1991, dated 1993).

Experiments:
[1] = target: T1, recombinant human acetylcholinesterase mutant ser/r-met-AChE (serine instead of cysteine at position 611, additional N-terminal methionine); SEQ ID NO:1 numberin (Homo sapiens, UniProt P22303, C611S); assay: Inhibitor specificity: enzyme reacted five minutes with inhibitor, then acetylthiocholine added (Ellman assay); assay type: biochemical; conditions: increasing dosages from 0.8×10^-8 M to 0.8×10^-6 M; dose-dependent
T1 construct: made in house; host or cells: E. coli S.phi.930 harboring pMLF-52ser
Experimental: (§1) AChE activity was assayed by the spectrophotometric method of Ellman using acetylthiocholine as substrate (Ellman, G.L. et al. ([…]) Biochem. Pharm. 7: 88-95)). Acetylthiocholine hydrolysis generates free thiocholine which reacts with Ellman reagent (DTNB) to produce a yellow chromophore. The concentration of the yellow chromophore is determined by the absorption at 412 nm and is proportional to the amount of AChE present. One enzyme unit (U) is the amount of enzyme which hydrolyses 1 μmole of substrate per minute. The extinction coefficient of 1 M chromophore is […]. Specific activity is expressed as U/mg protein.
(§2) The authenticity of the activity of the refolded r-met-AChE and ser/r-met-AChE was verified by testing the refolded protein with two different substrates and a specific inhibitor. Acetylthiocholine (the specific substrate), and butyrylthiocholine (the BuChE substrate), and a specific inhibitor BW-284C51 (see Background of the Invention) were tested to see whether the recombinant enzyme retained the specific characteristics of the naturally-occurring enzyme. The enzyme was assayed with each of the two substrates, or first reacted for five minutes with the specific inhibitor BW-284651 and then the specific substrate was added to the reaction mix. […] Since the butyrylthiocholine was present at a 20-fold higher concentration than acetylthiocholine it is seen that the enzymatic activity towards the butyrylthiocholine is 200-fold less than towards the specific substrate. No activity at all was detected towards the 0.05 mM butyrylthiocholine.

[2] = target: T2, recombinant human acetylcholinesterase mutant ser/r-met-AChE (serine instead of cysteine at position 611, additional N-terminal methionine; SEQ ID NO:1 numbering) (Homo sapiens, UniProt P22303, C611S); assay: as above; assay type: biochemical; conditions: substrate acetylthiocholine, non-purified enzyme
T2 construct: made in house; host or cells: E. coli S.phi.930 harboring pMLF-52ser
Experimental: as §1, §2

CC(=O)SCC[N+](C)(C)C = assay: purified protein, by the assay type; conditions: other: refolded enzyme; Lineweaver-Burk plot (FIG. 8); pH 8.0
Experimental: Lineweaver-Burk Plot of ser/r-met-AChE Enzyme kinetics were determined for the mutant rAChE using acetylthiocholine as substrate.
AChE activity was assayed by the spectrophotometric method of Ellman using acetylthiocholine as substrate (Ellman, G.L. et al. (1981) Biochem. Pharm. 7: 88-95)). Acetylthiocholine hydrolysis generates free thiocholine which reacts with Ellman reagent (DTNB) to produce a yellow chromophore. The concentration of the yellow chromophore is determined by the absorption at 412 nm and is proportional to the amount of AChE present. One enzyme unit (U) is the amount of enzyme which hydrolyses 1 μmole of substrate per minute. The extinction coefficient of 1 M chromophore is 13.6×10^4. Specific activity is expressed as U/mg protein.

T2 sequence (P22303 32-614 C611S): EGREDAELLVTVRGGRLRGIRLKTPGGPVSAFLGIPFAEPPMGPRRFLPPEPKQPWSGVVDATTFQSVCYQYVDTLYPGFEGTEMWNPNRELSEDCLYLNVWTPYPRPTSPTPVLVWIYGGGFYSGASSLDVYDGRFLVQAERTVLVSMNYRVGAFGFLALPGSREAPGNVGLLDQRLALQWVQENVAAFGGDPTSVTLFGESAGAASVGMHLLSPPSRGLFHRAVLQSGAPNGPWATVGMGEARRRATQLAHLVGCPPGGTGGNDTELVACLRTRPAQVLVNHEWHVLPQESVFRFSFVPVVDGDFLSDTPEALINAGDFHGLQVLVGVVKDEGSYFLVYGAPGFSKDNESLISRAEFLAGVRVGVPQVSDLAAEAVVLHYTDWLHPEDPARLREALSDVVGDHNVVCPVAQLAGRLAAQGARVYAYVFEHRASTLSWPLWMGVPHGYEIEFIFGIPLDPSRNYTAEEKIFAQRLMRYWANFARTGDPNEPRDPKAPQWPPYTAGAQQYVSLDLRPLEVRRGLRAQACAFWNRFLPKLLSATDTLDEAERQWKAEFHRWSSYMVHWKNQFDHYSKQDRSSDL
T1 sequence (P22303 32-614 C611S): as above

## C=CC[N+](C)(C)c1ccc(CCC(=O)CCc2ccc([N+](C)(C)CC=C)cc2)cc1 [BW284C51]
[1]
  inhibition: 57%-100%
[2]; BW284C51 0.8 × 10^-6 M
  inhibition at 0.8 µM: 100%
[2]; BW284C51 0.8 × 10^-7 M
  inhibition at 0.08 µM: 87%
[2]; BW284C51 0.8 × 10^-8 M
  inhibition at 0.008 µM: 55%

## recombinant human acetylcholinesterase mutant ser/r-met-AChE (serine instead of cysteine at position 611, additional N-terminal methionine; SEQ ID NO:1 numbering) (Homo sapiens; C611S)
CC(=O)SCC[N+](C)(C)C
  Km: 100 µM
